Measurements published in patent US8592172B2, “Bioluminescent assays using cyanobenzothiazole compounds” (Promega Corporation, priority 2010, dated 2013).

What was measured:
UGT isozymes = UGT isozymes currently reported in the literature; cited from earlier work
GST M1-1 = biological target: T1, GST M1-1 (Homo sapiens, UniProt P09488); assay: Utilization of benzothiazole substrate by GST M1-1; assay type: biochemical; conditions: 55 minutes at room temperature
T1 sequence (P09488 2-218 limits assumed): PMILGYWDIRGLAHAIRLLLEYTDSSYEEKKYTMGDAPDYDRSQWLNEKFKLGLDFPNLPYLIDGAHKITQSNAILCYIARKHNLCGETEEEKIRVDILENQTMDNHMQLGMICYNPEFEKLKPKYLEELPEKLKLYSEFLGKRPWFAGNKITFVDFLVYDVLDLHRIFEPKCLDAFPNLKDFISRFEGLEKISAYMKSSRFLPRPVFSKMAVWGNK
Experimental: (§1) Compound 934-37 was dissolved in DMSO to produce a solution approximately 1 mg/mL. This solution was diluted 1:100 (v/v) into 50 mM HEPES buffer pH 7.5 to produce a substrate solution (approximately 10 μg/ml). Twenty μL of this solution was placed in 10 wells of a 96 well, white luminometer plate (Promega part Z3291), 20 μL of a 1:3.1 dilution of the substrate (approximately 3.2 μg/ml) was placed into another 10 wells in the luminometer plate.
(§2) D-Cysteine, 4 mg (Sigma Chemical Corp.; C8005-1g, 017K1034) was dissolved into 1 mL of 50 mM HEPES buffer pH 7.5, then 4 μL added to 4 of the wells containing the substrate solution and 4 of the wells with diluted substrate solution to convert compound 934-37 to the corresponding luciferin derivative. The structures of these compounds are shown below.
A sample of GST M1-1 (1.2 mg/mL) and 100 μL of 100 mM glutathione was diluted into 5 mL of 50 mM HEPES pH 7.5, then 25 μL added to: two of the wells with unconverted, concentrated compound 934-37; 2 wells with concentrated and converted compound 934-37; and two of the wells with unconverted, diluted compound 934-37 and 2 of the wells with converted, diluted compound 934-37.
(§3) Glutathione (100 μL of 100 mM glutathione) had been diluted to 5 mL with 50 mM HEPES buffer pH 7.5, then 25 μL added to the remaining wells of converted and unconverted compound 934-37 in concentrated and diluted solution.
(§4) After 55 minutes at room temperature, 4 μL of the D-cysteine solution above was added to all wells that had not received cysteine before, then 50 μL of P450-Glo LDR was added. The plate was then placed into a GloMax luminometer (Promega Corp.), and the bioluminescence measured after 15 minutes of incubation. The values obtained were averaged, and the average value of the bioluminescence produced from the wells with no enzyme were then subtracted from the average of the bioluminescence produced in the wells with enzyme.

[1] = biological target: T2, glutathione S-transferase isoenzyme A1-1 (GST A1-1) (Homo sapiens, UniProt P08263); assay: Utilization of benzothiazole substrate by GST A1-1; assay type: biochemical; conditions: 55 minutes at room temperature
T2 sequence (P08263 1-222): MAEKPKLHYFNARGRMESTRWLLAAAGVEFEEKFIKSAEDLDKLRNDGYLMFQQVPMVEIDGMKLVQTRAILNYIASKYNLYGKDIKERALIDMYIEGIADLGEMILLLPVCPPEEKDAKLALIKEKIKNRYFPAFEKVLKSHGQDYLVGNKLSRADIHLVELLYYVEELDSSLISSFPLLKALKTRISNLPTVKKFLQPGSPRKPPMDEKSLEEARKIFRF
Experimental: as §1, §2
A sample of glutathione S-transferase isoenzyme A1-1 (GST A1-1) (1.2 mg/mL) and 100 μL of 100 mM glutathione in water was diluted into 5 mL of 50 mM HEPES pH 7.5, then 25 μL added to the plate as follows: 2 wells with unconverted, concentrated compound 934-37; 2 wells with concentrated and converted compound 934-37; 2 wells with unconverted, diluted compound 934-37; and 2 of the wells with converted, diluted compound 934-37.
as §3, §4

UGT 2B4 = biological target: T3, UGT 2B4 (Homo sapiens, UniProt P06133); assay: Recombinant UGT panel, substrate utilization; assay type: biochemical; conditions: 2 hour incubation at 37° C., recombinant Supersomes
T3 construct: purchased BD Gentest; host or cells: insect cells (microsomes)
T3 sequence (P06133 24-528): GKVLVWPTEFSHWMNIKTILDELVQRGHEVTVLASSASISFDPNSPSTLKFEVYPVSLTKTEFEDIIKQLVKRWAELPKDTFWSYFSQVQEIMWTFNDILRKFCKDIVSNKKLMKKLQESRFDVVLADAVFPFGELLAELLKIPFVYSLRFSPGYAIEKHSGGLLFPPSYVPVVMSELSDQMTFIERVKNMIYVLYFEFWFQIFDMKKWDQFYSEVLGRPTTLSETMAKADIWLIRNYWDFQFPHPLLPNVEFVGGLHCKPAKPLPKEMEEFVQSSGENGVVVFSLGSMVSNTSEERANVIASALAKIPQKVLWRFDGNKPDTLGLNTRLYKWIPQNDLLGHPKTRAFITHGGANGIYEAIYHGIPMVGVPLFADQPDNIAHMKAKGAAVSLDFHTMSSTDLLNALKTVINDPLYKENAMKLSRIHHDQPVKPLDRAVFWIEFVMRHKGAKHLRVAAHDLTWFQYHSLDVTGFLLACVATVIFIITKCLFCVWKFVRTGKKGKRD
Experimental: (§5) During this incubation, the cysteine reacts with the cyanobenzathiozole substrate to yield a D-luciferin derivative. […] Therefore, activity of the UGT enzyme can be measured by analyzing the difference (lower or no output) in relative light units (RLU) of a sample in which glucuronidation occurs compared to a sample that was run under the same conditions with no added UDPGA cofactor.
(§6) In this example, a series of 12 recombinant UGTs expressed in insect microsomes (Supersomes™, BD Gentest™), as well as the control microsomes not expressing the UGT enzyme, were incubated with compound 3138, compound 3478, or compound 3165 as substrates, with or without the UDPGA co-factor.
(§7) After addition of a luciferin detection reagent (LDR) containing D-cysteine, both the substrate and the product were converted to D-luciferins (compound 3478 is already a luciferin derivative before addition of the LDR).
(§8) Reactions were assembled in a white, 96-well plate. Each well contained 20 μL of reaction mixture comprised of 100 mM TES, pH 7.5, 16 mM MgCl2, 50 μg/mL alamethicin (Sigma), 60 μM compound 3138 or compound 3478, and 0.4 mg/mL of control or recombinant UGT membranes. The reactions were initiated by addition of 20 μL of water or 8 mM triammonium UDPGA (Sigma) to each well. The plate was mixed, sealed, and incubated in a 37° C. water bath for 2 hours. After the incubation, 40 μL P450-Glo LDR (Promega) with 20 mM D-cysteine-HCl.H2O (Sigma) was added to each well, the plate was mixed and allowed to incubate at room temperature for 20 minutes. After the incubation was completed, the plate was read on a Veritas™ luminometer (Turner BioSystems, Inc.; Sunnyvale, Calif.).
(§9) For each isozyme, the bioluminescence from the replicates containing UDPGA were subtracted from the average bioluminescence of the replicates without UDPGA. The average Δ RLU value obtained and the standard deviation of the replicates were then divided by the average bioluminescence for samples without UDPGA to obtain the % utilization for each isozyme. The % utilization obtained from the control microsomes was then subtracted from each isozyme to give the background corrected utilization data for those isozymes.

UGT 1A8 = biological target: T4, UGT 1A8 (Homo sapiens, UniProt Q9HAW9); assay: Recombinant UGT panel, substrate utilization; assay type: biochemical; conditions: 2 hour incubation at 37° C., recombinant Supersomes, background corrected
T4 construct: purchased BD Gentest; host or cells: insect cells (microsomes)
T4 sequence (Q9HAW9 26-530): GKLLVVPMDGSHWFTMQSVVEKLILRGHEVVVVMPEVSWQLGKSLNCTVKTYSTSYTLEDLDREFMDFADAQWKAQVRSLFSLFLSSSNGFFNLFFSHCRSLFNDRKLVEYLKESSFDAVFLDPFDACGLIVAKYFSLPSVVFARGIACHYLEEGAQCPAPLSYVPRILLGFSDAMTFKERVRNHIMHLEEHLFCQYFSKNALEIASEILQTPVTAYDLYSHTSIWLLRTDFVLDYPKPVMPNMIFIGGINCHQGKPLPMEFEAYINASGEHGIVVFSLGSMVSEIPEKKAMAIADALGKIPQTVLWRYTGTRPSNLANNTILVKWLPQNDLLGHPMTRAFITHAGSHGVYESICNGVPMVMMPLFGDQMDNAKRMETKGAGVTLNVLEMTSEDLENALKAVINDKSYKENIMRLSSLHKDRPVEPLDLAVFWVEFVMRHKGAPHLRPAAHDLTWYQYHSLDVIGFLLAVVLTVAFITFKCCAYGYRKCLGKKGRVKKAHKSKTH
Experimental: as §5, §6, §7, §8, §9

UGT 1A4 = biological target: T5, UGT 1A4 (Homo sapiens, UniProt P22310); assay: Recombinant UGT panel, substrate utilization; assay type: biochemical; conditions: 2 hour incubation at 37° C., recombinant Supersomes
T5 construct: purchased BD Gentest; host or cells: insect cells (microsomes)
T5 sequence (P22310 29-534): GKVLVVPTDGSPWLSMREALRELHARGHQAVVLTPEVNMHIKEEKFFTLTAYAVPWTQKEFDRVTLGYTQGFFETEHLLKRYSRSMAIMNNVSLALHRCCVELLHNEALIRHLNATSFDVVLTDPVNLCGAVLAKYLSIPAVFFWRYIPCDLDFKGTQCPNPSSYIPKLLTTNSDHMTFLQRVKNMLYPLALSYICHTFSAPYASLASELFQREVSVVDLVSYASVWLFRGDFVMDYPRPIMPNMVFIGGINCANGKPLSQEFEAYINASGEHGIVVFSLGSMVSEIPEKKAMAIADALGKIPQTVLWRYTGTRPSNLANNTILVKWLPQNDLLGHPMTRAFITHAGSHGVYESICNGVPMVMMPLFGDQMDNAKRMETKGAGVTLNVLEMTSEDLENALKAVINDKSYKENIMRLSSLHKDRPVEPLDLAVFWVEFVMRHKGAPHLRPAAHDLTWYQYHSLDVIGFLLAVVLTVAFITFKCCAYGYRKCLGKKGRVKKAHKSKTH
Experimental: as §5, §6, §7, §8, §9

UGT 1A1 = biological target: T6, UGT 1A1 (Homo sapiens, UniProt P22309); assay: Recombinant UGT panel, substrate utilization; assay type: biochemical; conditions: 2 hour incubation at 37° C., recombinant Supersomes, background corrected
T6 construct: purchased BD Gentest; host or cells: insect cells (microsomes)
T6 sequence (P22309 26-533): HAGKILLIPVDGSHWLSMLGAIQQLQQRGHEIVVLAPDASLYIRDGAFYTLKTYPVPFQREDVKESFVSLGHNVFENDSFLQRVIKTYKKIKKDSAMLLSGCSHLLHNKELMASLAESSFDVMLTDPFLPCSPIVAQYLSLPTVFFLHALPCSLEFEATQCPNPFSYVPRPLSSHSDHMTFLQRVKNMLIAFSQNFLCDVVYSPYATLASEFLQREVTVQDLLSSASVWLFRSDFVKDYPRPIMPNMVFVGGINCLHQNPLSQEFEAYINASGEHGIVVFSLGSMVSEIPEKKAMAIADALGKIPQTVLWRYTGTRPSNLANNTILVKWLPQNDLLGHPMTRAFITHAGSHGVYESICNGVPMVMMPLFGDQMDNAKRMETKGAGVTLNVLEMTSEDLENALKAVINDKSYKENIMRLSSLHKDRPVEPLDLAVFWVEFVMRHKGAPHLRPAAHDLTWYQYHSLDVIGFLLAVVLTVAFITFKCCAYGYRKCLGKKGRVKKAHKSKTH
Experimental: as §5, §6, §7, §8, §9

UGT 1A6 = biological target: T7, UGT 1A6 (Homo sapiens, UniProt P19224); assay: Recombinant UGT panel, substrate utilization; assay type: biochemical; conditions: 2 hour incubation at 37° C., recombinant Supersomes
T7 construct: purchased BD Gentest; host or cells: insect cells (microsomes)
T7 sequence (P19224 27-532): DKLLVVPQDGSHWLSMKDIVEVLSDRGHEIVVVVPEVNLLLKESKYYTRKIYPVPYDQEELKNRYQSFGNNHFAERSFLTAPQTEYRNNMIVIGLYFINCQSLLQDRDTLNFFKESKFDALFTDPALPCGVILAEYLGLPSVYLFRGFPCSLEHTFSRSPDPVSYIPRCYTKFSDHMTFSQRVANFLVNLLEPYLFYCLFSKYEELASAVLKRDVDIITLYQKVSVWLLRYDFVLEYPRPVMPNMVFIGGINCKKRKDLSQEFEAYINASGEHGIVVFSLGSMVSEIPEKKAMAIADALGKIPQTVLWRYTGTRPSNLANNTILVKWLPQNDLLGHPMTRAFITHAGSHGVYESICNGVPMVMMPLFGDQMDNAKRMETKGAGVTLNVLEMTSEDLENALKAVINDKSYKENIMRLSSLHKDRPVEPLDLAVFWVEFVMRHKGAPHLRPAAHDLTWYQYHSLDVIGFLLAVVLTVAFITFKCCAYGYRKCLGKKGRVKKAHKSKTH
Experimental: as §5, §6, §7, §8, §9

UGT 1A9 = biological target: T8, UGT 1A9 (Homo sapiens, UniProt O60656); assay: Recombinant UGT panel, substrate utilization; assay type: biochemical; conditions: 2 hour incubation at 37° C., recombinant Supersomes, background corrected
T8 construct: purchased BD Gentest; host or cells: insect cells (microsomes)
T8 sequence (O60656 26-530): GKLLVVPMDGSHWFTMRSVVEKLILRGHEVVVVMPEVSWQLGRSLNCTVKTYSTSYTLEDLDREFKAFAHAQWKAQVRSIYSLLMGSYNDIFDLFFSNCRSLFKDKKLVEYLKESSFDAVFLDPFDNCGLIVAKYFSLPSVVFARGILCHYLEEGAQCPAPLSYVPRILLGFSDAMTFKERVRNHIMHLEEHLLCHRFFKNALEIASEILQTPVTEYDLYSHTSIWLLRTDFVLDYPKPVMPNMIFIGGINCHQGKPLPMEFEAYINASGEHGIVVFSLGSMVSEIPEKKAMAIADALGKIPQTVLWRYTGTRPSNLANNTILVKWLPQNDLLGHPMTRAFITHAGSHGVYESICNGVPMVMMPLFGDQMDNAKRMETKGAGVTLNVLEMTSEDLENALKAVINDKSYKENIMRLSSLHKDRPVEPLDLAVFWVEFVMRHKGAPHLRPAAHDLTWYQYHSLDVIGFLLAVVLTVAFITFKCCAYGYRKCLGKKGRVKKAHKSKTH
Experimental: as §5, §6, §7, §8, §9

UGT 1A10 = biological target: T9, UGT 1A10 (Homo sapiens, UniProt Q9HAW8); assay: Recombinant UGT panel, substrate utilization; assay type: biochemical; conditions: 2 hour incubation at 37° C., recombinant Supersomes, background corrected
T9 construct: purchased BD Gentest; host or cells: insect cells (microsomes)
T9 sequence (Q9HAW8 26-530): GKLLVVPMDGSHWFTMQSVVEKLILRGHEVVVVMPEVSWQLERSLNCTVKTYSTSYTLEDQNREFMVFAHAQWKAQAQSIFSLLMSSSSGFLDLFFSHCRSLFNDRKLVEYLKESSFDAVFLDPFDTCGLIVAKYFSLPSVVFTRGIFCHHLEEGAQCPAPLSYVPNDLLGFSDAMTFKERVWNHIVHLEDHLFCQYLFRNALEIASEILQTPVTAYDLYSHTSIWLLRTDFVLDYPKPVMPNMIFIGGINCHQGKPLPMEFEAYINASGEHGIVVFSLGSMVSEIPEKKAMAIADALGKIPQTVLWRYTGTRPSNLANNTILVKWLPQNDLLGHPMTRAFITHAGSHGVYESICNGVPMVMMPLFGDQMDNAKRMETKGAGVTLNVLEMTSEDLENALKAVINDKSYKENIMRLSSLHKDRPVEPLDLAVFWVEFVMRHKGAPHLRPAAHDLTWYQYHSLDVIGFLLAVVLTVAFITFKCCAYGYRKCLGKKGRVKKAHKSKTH
Experimental: as §5, §6, §7, §8, §9

UGT 2B7 = UGT 2B7 (Homo sapiens, UniProt P16662); assay: Recombinant UGT panel, substrate utilization; assay type: biochemical; parameters: purchased BD Gentest; host or cells: insect cells (microsomes); conditions: 2 hour incubation at 37° C., recombinant Supersomes, background corrected
Sequence of UGT 2B7 (P16662 24-529): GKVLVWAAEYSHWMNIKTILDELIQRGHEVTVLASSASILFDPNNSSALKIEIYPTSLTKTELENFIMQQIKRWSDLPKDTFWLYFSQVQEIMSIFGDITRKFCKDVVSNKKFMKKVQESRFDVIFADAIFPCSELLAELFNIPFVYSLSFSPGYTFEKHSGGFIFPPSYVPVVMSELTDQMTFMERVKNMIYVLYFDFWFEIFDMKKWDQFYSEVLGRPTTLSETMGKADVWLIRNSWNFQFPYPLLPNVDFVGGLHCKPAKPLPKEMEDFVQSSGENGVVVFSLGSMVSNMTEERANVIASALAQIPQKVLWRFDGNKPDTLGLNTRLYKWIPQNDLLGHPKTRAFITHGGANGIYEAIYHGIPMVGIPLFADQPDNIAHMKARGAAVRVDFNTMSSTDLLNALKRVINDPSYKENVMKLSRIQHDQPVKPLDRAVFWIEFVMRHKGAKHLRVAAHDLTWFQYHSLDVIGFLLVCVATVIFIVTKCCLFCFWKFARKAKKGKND
Experimental: as §5, §6, §7
Reactions were assembled in a white, 96-well plate. Each well contained 20 μL of reaction mixture comprised of 100 mM TES, pH 7.5, 16 mM MgCl2, 50 μg/mL alamethicin (Sigma), 60 μM compound 3138 or compound 3478, and 0.4 mg/mL of control or recombinant UGT membranes. The reactions were initiated by addition of 20 μL of water or 8 mM triammonium UDPGA (Sigma) to each well. […] After the incubation was completed, the plate was read on a Veritas™ luminometer (Turner BioSystems, Inc.; Sunnyvale, Calif.). […]

[2] = concentrated substrate (approximately 10 μg/ml)
[3] = diluted substrate (approximately 3.2 μg/ml)

O=c1cc(C(F)(F)F)c2ccc(O)cc2o1 [7-hydroxy-4-trifluoromethyl coumarin]
Isozymes Modulated (UGT isozymes): Substrate for 1A1, 1A3, 1A6, 1A9, 2B7

Cc1cc(S(=O)(=O)Oc2ccc3nc(C#N)sc3c2)ccc1[N+](=O)[O-] [Compound 934-37]
bioluminescence with GST M1-1 minus no enzyme (GST M1-1; [2]): 41,212 RLU
bioluminescence with GST M1-1 minus no enzyme (GST M1-1; [3]): 30,428 RLU
bioluminescence with GST A1-1 minus no enzyme [1, 2]: 164,400 RLU
bioluminescence with GST A1-1 minus no enzyme [1, 3]: 195,021 RLU

Cc1cc(O)cc2sc(C3=NC(C(=O)O)CS3)nc12 (stereo not shown) [Compound 3478]
utilization of substrate by UGT 2B4 (UGT 2B4): did not utilize either compound 3138 or 3478 to an appreciable extent
% utilization of substrate by UGT 1A8 (UGT 1A8): ≤ 15%
utilization of substrate by UGT 1A4 (UGT 1A4): did not utilize either compound 3138 or 3478 to an appreciable extent
% utilization of substrate by UGT 1A1 (UGT 1A1): ≤ 15%
utilization of substrate by UGT 1A6 (UGT 1A6): able to utilize compound 3478 to any appreciable extent
% utilization of substrate by UGT 1A9 (UGT 1A9): ≤ 15%
% utilization of substrate by UGT 1A10 (UGT 1A10): ≤ 15%
% utilization of substrate by UGT 2B7 (UGT 2B7): ≤ 15%
